{"source": "patent US8012983B2", "about": "“Substituted triazolopyrazines useful for the treatment of degenerative and inflammatory diseases” (Galapagos NV, priority 2008, dated 2011)", "key": {"[1]": {"system": "TNF alpha", "assay": "Septic shock model (LPS-induced TNF release)", "assay_type": "in vivo, BALB/cJ female mice", "conditions": "after injection of LPS, benchmark, FIG. 7", "protocol": "Six BALB/cJ female mice (20 g) per group are treated at the intended dosing once, po. Thirty minutes later, LPS (15 μg/kg; E. coli serotype 0111:B4) is injected ip. Ninety minutes later, mice are euthanized and blood is collected. Circulating TNF alpha levels are determined using commercially available ELISA kits. Dexamethasone (5 μg/kg) is used as a reference anti-inflammatory compound."}, "[2]": {"system": "MMP1 expression by activated synovial fibroblasts (RASFs)", "assay": "'MMP assay': complex trigger-induced MMP1 expression by synovial fibroblasts (MMP1 ELISA)", "assay_type": "cell-based", "conditions": "Homo sapiens, Fibroblast; complex trigger activated SFs, 48 hrs, FIG. 3; read-out: IC50 value, reduction of MMP1 expression by SFs", "experimental": "A 384-well format ELISA for measurement of MMP1 is developed. Various primary antibodies are tested, as well as various ELISA protocols. The following protocol is developed and validated to measure MMP1 levels in SF supernatant in 384 well plates: white Lumitrac 600 384 well plates (Greiner) are coated with 2 μg/mL anti-MMP1 antibody MAB1346 (Chemicon). The antibody is diluted in buffer 40 (1.21 g Tris base (Sigma), 0.58 g NaCl (Calbiochem) and 5 ml 10% NaN3 (Sigma) in 1 L milliQ water and adjusted to pH 8.5). After overnight incubation at 4° C., plates are washed with PBS (80 g NaCl, 2 g KCl (Sigma), 11.5 g Na2HPO4.7H2O and 2 g KH2PO4 in 10 L milliQ; pH 7.4) and blocked with 100 μL/well Casein buffer (2% Casein (VWR International) in PBS). Next day, casein buffer is removed from ELISA plates and replaced by 50 μL/well EC buffer (4 g casein, 2.13 g Na2HPO4 (Sigma), 2 g bovine albumin (Sigma), 0.69 g NaH2PO4.H2O (Sigma), 0.5 g CHAPS (Roche), 23.3 g NaCl, 4 ml 0,5 M EDTA pH 8 (Invitrogen), 5 ml 10% NaN3 in 1 L milliQ and adjusted to pH 7.0). 0.25 mM DTT (Sigma) is added to the thawed samples plates. After removal of the EC buffer, 20 μL of sample is transferred to the ELISA plates. After overnight incubation at 4° C. plates are washed twice with PBS and once with PBST (PBS with 0.05% Tween-20 (Sigma)) and incubated with 35 μL/well biotinylated anti-MMP1 antibody solution (R&D). This secondary antibody is diluted in buffer C (0.82 g NaH2PO4.H2O, 4.82 g Na2HPO4, 46.6 g NaCl, 20 g bovine albumin and 4 mL 0,5M EDTA pH 8 in 2 L milliQ and adjusted to pH 7.0) at a concentration of 5 μg/mL. After 2 h of incubation at RT, plates are washed as described above and incubated with 50 μL/well streptavidin-HRP conjugate (Biosource). Streptavidin-HRP conjugate is diluted in buffer C at a concentration of 0.25 μg/mL. After 45 min, plates are washed as described above and incubated for 5 min with 50 μL/well BM Chem ELISA Substrate (Roche). Readout is performed on the Luminoscan Ascent Luminometer (Labsystems) with an integration time of 200 msec or with an Envision reader (Perkin Elmer).\nThe increase of MMP1 expression by SFs upon treatment with cytokines relevant in the field of RA (TNF-α, IL1β and OSM) or a combination thereof is shown in FIG. 2 as white bars. For this experiment, SFs are seeded in 96 well plates, 3,000 cells/well. 24 h later, the medium is changed to M199 medium supplemented with 1% FBS. One day after the medium change, cytokines or combinations thereof are added to the cultures, each cytokine being added to a final concentration of 25 ng/mL. 72 h after cytokine addition, the supernatant is collected and processed in the MMP1 ELISA as described in the protocol given above. In parallel with this experiment, SFs are triggered, using the same protocol, with the supernatant of THP1 cells (2-fold diluted in M199+1% FBS) treated with the same cytokines or combinations of cytokines for 48 h in M199 medium+1% FBS. The induction of the MMP1 expression by SFs triggered with the supernatants of TNF-α-treated THP1 cells is stronger (>4.5 fold induction) as compared to the SFs triggered with recombinant TNF-α alone (3-fold induction) and almost equals the 5-fold induction obtained by a mixture of 3 purified cytokines (TNF-α, IL1βb, OSM). […] As the role of TNF-α in the RA pathogenesis is validated (TNF-α-blockers such as Infliximab and Etanercept show some efficacy in the treatment of RA patients) and the THP-1 cells are representative for monocytes/macrophages present in the joint of RA patients, the TNF-α-based trigger mixture prepared by contacting THP-1 cells with TNF-α will contain factors present in the joints of RA patients and subsequently is relevant to RA. This TNF-α-based complex trigger, further referred to as the ‘complex trigger’, will further be used as basis for the ‘MMP assay’. […]"}}, "data": [{"compound": "C[C@@H]1C[C@H]2[C@@H]3CCC4=CC(=O)C=C[C@]4(C)[C@@]3(F)[C@@H](O)C[C@]2(C)[C@@]1(O)C(=O)CO", "note": "[dexamethasone, reference compound]", "values": [{"measurement": "percentage inhibition of TNF alpha release", "setting": "[1]", "value": 100, "unit": "%"}, {"measurement": "IC50", "setting": "[2]", "value": "~1", "unit": "nM"}]}]}
